“Also recorded” adds a separate entry of the source.
How the values were obtained:
[1] = tested on: aortic rings; assay: Rat aortic thoracic rings: acetylcholine relaxation after phenylephrine contraction, 4-week oral treatment; type: in vivo, alloxan-diabetic male Wistar rats; conditions: for endothelial dysfunction overall: 4-week oral administration versus saline treated alloxan diabetic rats; for effect on macrovascular endothelial dysfunction at highest acetyl choline concentrations: FIG. 2, FIG. 3; for effect on macrovascular endothelial dysfunction at intermediate acetylcholine concentration: acetylcholine 10^-7 M
Protocol: Male Wistar rats, weighing between 230-250 g, fed regular chow, with free access to water were separated in four groups (n=10/each). The first two groups, termed normoglycemic, were treated with saline (0.1 mL/100 g/12 h) by the oral route (intragastric gavage) or untreated for four weeks. The second two groups, hyperglycemic, were treated with saline (0.1 mL/100 g/12 h) or treated with D-chiro-inositol (20 mg/kg/12 h) under the same protocol. […] Diabetes was induced by a single intravenous injection of 45 mg/kg alloxan as described by Sannomiya et al., 1997 ( ). Diabetes was diagnosed 96 h after injection by blood glucose assay >200 mg/dL. All protocols were approved by the local committee and follow the Guide for the Care and Use of Laboratory Animals published by the US National Institutes of Health (NIH Publication No. 85-23, revised 1996). After completion of blood pressure measurements and vascular mesenteric bed collection, animals were sacrificed by exsanguination while under anesthesia. The thoracic aorta was excised and rapidly cleansed of connective tissue in Petri dishes containing warmed and gassed (95% O2 in 5% CO2) Krebs-Henseleit solution (KHS). The aorta segment was cut in small rings (≈5 mm) and mounted horizontally in 5 mL chambers for isometric recording of tension. The resting tension was adjusted to 1 g and the tissue allowed to equilibrate for 1 hour with a 15 min washout period. Tissues were kept in KHS at 37° C., gassed with the O2, CO2 mixture and isometric recordings made with a force displacement transducer connected to a four-channel polygraph (Narco Biosystems, Houston, Tex., USA). After the equilibration period, tissues were contracted with a submaximal concentration of phenylephrine (≈60% maximal response) until two similar responses were obtained in order to ensure reproducibility of the contraction curves. […] The acetylcholine dose response curve was repeated after a 60 min washout interval. All experiments were performed in the presence of indomethecin (10 μM) and guanethidine (10 μM) to prevent the production of vasoactive prostanoids. At least 6 separate experiments will be performed each in duplicate.

[2] = tested on: ROS generated by xanthine/xanthine oxidase; assay: Superoxide assay in vitro: xanthine/xanthine oxidase, NBT reduction; type: biochemical; conditions: low micromolar concentrations, FIG. 10
Protocol: Superoxide radicals were generated by the reaction of xanthine (1 mM) and xanthine oxidase ([…]) in air-saturated potassium phosphate buffer (pH 7.8 at 25° C.). Superoxide anions were detected by nitroblue tetrazolium (NBT—50 μM) which undergoes reduction by O2-. to its formazan. The rate of reduction was monitored spectrophotometrically at 560 nm with an Ultrospec 1000 (Pharmacia Biotech, Cambridge, England). SOD-1, by scavanging O2-. Diminishes the rate of reduction of NBT. The volume was fixed at 2 mL. Each experiment was run in duplicate.

[3] = tested on: bovine aortic endothelial cells; assay: Superoxide assay in cells: ROS in high glucose (CM-H2DCFDA); type: cell-based; conditions: for reduction of ROS in cells: 30 mM glucose (ROS increased 2 fold vs 5 mM), 20, 50, 100 μM, FIG. 9; for maximal concentration for ROS reduction: 30 mM glucose, tested 20, 50, 100 μM
Protocol: Bovine aortic endothelial cells were incubated in 5 mM (control) or 30 mM (hyperglycemic) glucose for 2 hours and reactive oxygen species (ROS) determined fluorometrically using the probe CM-H2DCFDA as described by Brownlee et al. Cells were loaded with 10 μM CM-H2DCFDDA, incubated for 45 min at 37°, and then analyzed in an HTS 7000 Bio assay Fluorescent Plate Reader using HT software. ROS production is reported as nmol/mL based on a standard curve produced with H2O2.

[4] = tested on: renal vascular bed of perfused kidneys; assay: Acute perfusion of diabetic rabbit kidneys: acetylcholine-induced decrease in perfusion pressure; parameters: species or system alloxan-diabetic rabbits; conditions: 3-week diabetic rabbit kidneys; for restoration of vasorelaxant effect of acetylcholine, DCI versus db-DCI: repeated perfusion experiment, 1 μM; for restoration of endothelial function (acetylcholine induced decrease in perfusion pressure): perfusion with 1 μM, first experiment
Protocol: Male California rabbits, weighing 2-2.5 kg, were provided by the vivarium of the Biomedicine Institute-UFC. Diabetes was induced by intraperitoneal injection of alloxan (150 mg/kg) and only animals with plasma glucose concentration above 200 mg/dl were included in the study. Age-matched euglycemic rabbits were used as controls.
Kidneys and aortic rings are harvested from diabetic rabbits after 3 weeks of alloxan injection. They are perfused with KHS containing 1 μM D-chiro-inositol, pinitol, dibutyryl D-chiro-inositol, myo-inositol or saline for 1 hour. Dose response curves for acetylcholine are then performed following prior phenylephrine vasoconstriction as described. At least 6 separate experiments will be performed each in duplicate.
Kidneys and aortic rings were harvested from diabetic rabbits after 3 weeks of alloxan injection. The animals were sacrificed under sodium pentobarbital anesthesia (Hypnol®, 150-200 mg/kg). […]. Rabbit kidneys were obtained from male New Zealand rabbits (1-1.5 kg) after cannulation of the renal artery in situ. [Thereafter the organ is rapidly perfused with warm KHS at 37° C., pH 7.4 and gassed with 95% O2 in 5% CO2 in an open system with a constant flow adjusted to yield 1 mL/g/min and maintained by a peristaltic pump. The alterations in perfusion pressure are continuously recorded in a four-channel polygraph (Narco Biosystems, Houston, Tex., USA) by means of a pressure transducer (P23 Gould Stratham, Oxnard, Calif., USA). After a 30 minute equilibration period, phenylephrine (1 to 5 μM) is infused by means of an infusion pump at a constant rate (0.1 ml/min) in order to achieve a stable perfusion pressure (100-120 mm Hg). Concentration-response curves are performed to the vasodilators, i.e. acetylcholine (Ach; 10^-9 to 10^-3 M). Drugs are injected as a 50 μL bolus, previously shown not to effect perfusion pressure in an arm side just above the cannula in the renal artery.] Following penectomy, the corpus cavernosum was dissected in Krebs solution and cleared of the tunica albuginea and surrounding tissues. Strips (2 cm) were mounted vertically in isometric baths (5 mL) in Krebs-Henseleit solution (37° C., pH 7.4 gassed with 95% O2 in 5% CO2) enriched with indomethecin (10 μM) and guanethedine (10 μM) in order to avoid prostanoid or neuronal norandrenergic interaction. After a 60 minute period for stabilization, tissues were precontracted with 10 μM phenylephrine in order to increase the basal tonus. Thereafter, frequency response curves to transmural electrical field stimulations (EFS—square wave pulses: 10 s train; 20 V, 0.5 ms, 2-16 Hz) were performed until two stable reproducible curves were attained. […]

[5] = several publications; cited from earlier work
[6] = chronic oral administration, FIG. 3
[7] = listed as dibutyryl D-chiro-inositol

SMILES | endothelial dysfunction overall [1] | endothelial dysfunction overall ([1]; listed as D-chiro-inositol) | relaxant response induced by acetylcholine, reversal of the pre-contractile state ([1]; D-chiro-inositol 20 mg/kg/12 h by gavage four weeks, lower acetylcholine concentrations, saline diabetic 57.4±4.5%) | effect on macrovascular endothelial dysfunction at highest acetyl choline concentrations ([1]; chronic oral administration) | effect on macrovascular endothelial dysfunction at intermediate acetylcholine concentration [1, 6] | effect on macrovascular endothelial dysfunction at intermediate acetylcholine concentration ([1]; chronic oral administration, FIG. 3, listed as D-chiro-inositol) | reduction of ROS generated by xanthine/xanthine oxidase [2] | reduction of ROS generated by xanthine/xanthine oxidase ([2]; listed as D-chiro-inositol) | reduction of ROS in cells [3] | reduction of ROS in cells ([3]; listed as D-chiro-inositol) | maximal concentration for ROS reduction [3] | restoration of vasorelaxant effect of acetylcholine, DCI versus db-DCI [4] | hyperglycemia, triglyceridemia and glucose disposal [5] | effect on macrovascular endothelial dysfunction at lowest acetyl choline concentrations [1, 6] | reduction of ROS generated by xanthine/xanthine oxidase [2, 7] | reduction of ROS in cells ([3]; listed as Dibutyryl-DCI) | restoration of endothelial function (acetylcholine induced decrease in perfusion pressure) ([4]; listed as db-DCI) | restoration of endothelial function (acetylcholine induced decrease in perfusion pressure) [4, 7]
OC1C(O)C(O)C(O)C(O)C1O [DCI, D-chiro-inositol] | effective in improving endothelial dysfunction | prevented the endothelial dysfunction | 100% | partially restored to normal; also recorded: the most effective | followed by DCI, pinitol and myoinositol in descending order of effect | active at intermediate acetyl choline concentrations | reduced ROS in a low micromolar concentration dependant manner | equally effective | reduced back to basal concentrations in a dose dependant manner | reduced to basal concentrations in a dose dependent manner | 50 µM | partially restored | effective decrease of hyperglycemia, triglyceridemia and enhanced glucose disposal |  |  |  |  | 
CCCC(=O)O[C@@H]1[C@@H](O)[C@@H](O)[C@H](O)[C@H](O)[C@H]1OC(=O)CCC [dbDCI, 3,4-dibutyryl-D-chiroinositol] |  |  |  | the most effective | greatest effect |  | reduced ROS in a low micromolar concentration dependant manner; also recorded: statistically more effective than the other 3 inositols |  | reduced back to basal concentrations in a dose dependant manner |  | 20 µM | partially restored |  | most effective at the lowest acetyl choline concentrations | statistically more effective than the other 3 inositols | greater effect of reducing ROS than DCI at lower concentrations | completely restored endothelial function | restored to normal
